From ChEMBL document CHEMBL5260828, “Amphiphilic glycoconjugates as potential anti-cancer chemotherapeutics” (Eur J Med Chem, 2018)
Converted amounts (≈) assume the structure as drawn. Blank lines part the entries; values can stand above or below the compound they belong to.

Legend:
[1] = Inhibition of cell adhesion of human KM12-HX cells to TNF-alpha stimulated HUVEC cells incubated for 30 mins with HUVEC cells followed by [3H]thymidine labeled KM12-HX cells addition measured after 30 mins by radioactivity assay; assay type: functional, cell-based
[2] = Induction of apoptosis in rat Glial cell transformed with adenovirus 12 E1A incubated for 24 hrs by /Hoechst […] staining based flourescence microscopy; assay type: functional
[3] = tested on: NCI-H292; test: Cytotoxicity against human NCI-H292 cells assessed as reduction in cell viability incubated for 4 days by WST-1 assay; assay type: functional, cell-based; settings: NCI-H292, 96 h
[4] = tested on: MCF-10A; test: Cytotoxicity against human MCF-10A cells assessed as cell growth inhibition incubated for 3 days by MTT assay; assay type: functional, cell-based; settings: 72 h
[5] = Cytotoxicity against mouse NIH/3T3 cells assessed as cell growth inhibition incubated for 3 days by MTT assay; assay type: toxicity, cell-based, NIH3T3
[6] = Growth inhibition of human HBC4 cells by sulforhodamine B assay; assay type: functional
[7] = Growth inhibition of human BSY1 cells by sulforhodamine B assay; assay type: functional; settings: BSY-1
[8] = Growth inhibition of human HBC5 cells by sulforhodamine B assay; assay type: functional
[9] = tested on: MCF7; test: Growth inhibition of human MCF7 cells by sulforhodamine B assay; assay type: functional
[10] = Growth inhibition of human […] cells by sulforhodamine B assay; assay type: functional
[11] = tested on: U-251; test: Growth inhibition of human U-251 cells by sulforhodamine B assay; assay type: functional
[12] = tested on: SF-268; test: Growth inhibition of human SF-268 cells by sulforhodamine B assay; assay type: functional
[13] = tested on: SF-295; test: Growth inhibition of human SF-295 cells by sulforhodamine B assay; assay type: functional
[14] = tested on: SF-539; test: Growth inhibition of human SF-539 cells by sulforhodamine B assay; assay type: functional
[15] = tested on: SNB-75; test: Growth inhibition of human SNB-75 cells by sulforhodamine B assay; assay type: functional
[16] = tested on: SNB-78; test: Growth inhibition of human SNB-78 cells by sulforhodamine B assay; assay type: functional
[17] = tested on: HCC 2998; test: Growth inhibition of human HCC 2998 cells by sulforhodamine B assay; assay type: functional
[18] = tested on: KM12; test: Growth inhibition of human KM12 cells by sulforhodamine B assay; assay type: functional
[19] = tested on: HT-29; test: Growth inhibition of human HT-29 cells by sulforhodamine B assay; assay type: functional
[20] = tested on: HCT-15; test: Growth inhibition of human HCT-15 cells by sulforhodamine B assay; assay type: functional
[21] = tested on: HCT-116; test: Growth inhibition of human HCT-116 cells by sulforhodamine B assay; assay type: functional
[22] = tested on: NCI-H23; test: Growth inhibition of human NCI-H23 cells by sulforhodamine B assay; assay type: functional
[23] = tested on: NCI-H226; test: Growth inhibition of human NCI-H226 cells by sulforhodamine B assay; assay type: functional
[24] = tested on: NCI-H522; test: Growth inhibition of human NCI-H522 cells by sulforhodamine B assay; assay type: functional
[25] = tested on: NCI-H460; test: Growth inhibition of human NCI-H460 cells by sulforhodamine B assay; assay type: functional
[26] = tested on: A549; test: Growth inhibition of human A549 cells by sulforhodamine B assay; assay type: functional
[27] = tested on: DMS-273; test: Growth inhibition of human DMS-273 cells by sulforhodamine B assay; assay type: functional
[28] = tested on: LOX IMVI; test: Growth inhibition of human LOX IMVI cells by sulforhodamine B assay; assay type: functional
[29] = tested on: OVCAR-3; test: Growth inhibition of human OVCAR-3 cells by sulforhodamine B assay; assay type: functional
[30] = tested on: OVCAR-4; test: Growth inhibition of human OVCAR-4 cells by sulforhodamine B assay; assay type: functional
[31] = tested on: OVCAR-5; test: Growth inhibition of human OVCAR-5 cells by sulforhodamine B assay; assay type: functional
[32] = tested on: OVCAR-8; test: Growth inhibition of human OVCAR-8 cells by sulforhodamine B assay; assay type: functional
[33] = tested on: SK-OV-3; test: Growth inhibition of human SK-OV-3 cells by sulforhodamine B assay; assay type: functional
[34] = tested on: RXF 631; test: Growth inhibition of human RXF 631 cells by sulforhodamine B assay; assay type: functional
[35] = tested on: ACHN; test: Growth inhibition of human ACHN cells by sulforhodamine B assay; assay type: functional
[36] = tested on: St-4; test: Growth inhibition of human St-4 cells by sulforhodamine B assay; assay type: functional
[37] = tested on: MKN-1; test: Growth inhibition of human MKN-1 cells by sulforhodamine B assay; assay type: functional
[38] = tested on: MKN-7; test: Growth inhibition of human MKN-7 cells by sulforhodamine B assay; assay type: functional
[39] = tested on: MKN-28; test: Growth inhibition of human MKN-28 cells by sulforhodamine B assay; assay type: functional
[40] = tested on: MKN-45; test: Growth inhibition of human MKN-45 cells by sulforhodamine B assay; assay type: functional
[41] = tested on: MKN-74; test: Growth inhibition of human MKN-74 cells by sulforhodamine B assay; assay type: functional
[42] = tested on: DU-145; test: Growth inhibition of human DU-145 cells by sulforhodamine B assay; assay type: functional
[43] = tested on: PC-3; test: Growth inhibition of human PC-3 cells by sulforhodamine B assay; assay type: functional
[44] = tested on: HeLa S3; test: Cytotoxicity against human HeLa S3 cells assessed as cell growth inhibition; assay type: functional, cell-based
[45] = molecular target: Sarcoplasmic/endoplasmic reticulum calcium ATPase 1 (Oryctolagus cuniculus, UniProt P04191); test: Inhibition of SERCA1a in rabbit Sarcoplasmic reticulum assessed as inhibition constant in presence of [gamma-32P]ATP and calcium ionophore A23187 by coupled enzyme assay; assay type: subcellular
[46] = Cytotoxicity against mouse WEHI-231 cells assessed as cell growth inhibition incubated for 144 hrs by MTT assay; assay type: functional, cell-based; settings: WEHI231, 144 h
[47] = tested on: MCF7; test: Cytotoxicity against human MCF7 cells assessed as cell growth inhibition incubated for 144 hrs by MTT assay; assay type: functional, cell-based; settings: MCF7, 144 h
[48] = tested on: MCF7; test: Cytotoxicity against human MCF7 cells assessed as inhibition of cell growth incubated for 30 mins by MTT colorimetric assay; assay type: functional, cell-based; settings: MCF7, 0.5 h
[49] = tested on: SMMC-7721; test: Cytotoxicity against human SMMC-7721 cells assessed as inhibition of cell growth incubated for 30 mins by MTT colorimetric assay; assay type: functional, cell-based; settings: SMMC-7721, 0.5 h
[50] = tested on: MG-63; test: Cytotoxicity against human MG-63 cells assessed as inhibition of cell growth incubated for 30 mins by MTT colorimetric assay; assay type: functional, cell-based; settings: MG-63, 0.5 h
[51] = tested on: NCI-H292; test: Growth inhibition in human NCI-H292 cells incubated for 2 days by calcein-AM/pluronic F127 based fluorescence plate reader; assay type: functional; settings: NCI-H292, 48 h, time 2 day
[52] = tested on: Jurkat; test: Cytotoxicity against human Jurkat cells incubated for 18 hrs by MTS assay; assay type: functional

Sequence of Sarcoplasmic/endoplasmic reticulum calcium ATPase 1 (P04191 whole entry): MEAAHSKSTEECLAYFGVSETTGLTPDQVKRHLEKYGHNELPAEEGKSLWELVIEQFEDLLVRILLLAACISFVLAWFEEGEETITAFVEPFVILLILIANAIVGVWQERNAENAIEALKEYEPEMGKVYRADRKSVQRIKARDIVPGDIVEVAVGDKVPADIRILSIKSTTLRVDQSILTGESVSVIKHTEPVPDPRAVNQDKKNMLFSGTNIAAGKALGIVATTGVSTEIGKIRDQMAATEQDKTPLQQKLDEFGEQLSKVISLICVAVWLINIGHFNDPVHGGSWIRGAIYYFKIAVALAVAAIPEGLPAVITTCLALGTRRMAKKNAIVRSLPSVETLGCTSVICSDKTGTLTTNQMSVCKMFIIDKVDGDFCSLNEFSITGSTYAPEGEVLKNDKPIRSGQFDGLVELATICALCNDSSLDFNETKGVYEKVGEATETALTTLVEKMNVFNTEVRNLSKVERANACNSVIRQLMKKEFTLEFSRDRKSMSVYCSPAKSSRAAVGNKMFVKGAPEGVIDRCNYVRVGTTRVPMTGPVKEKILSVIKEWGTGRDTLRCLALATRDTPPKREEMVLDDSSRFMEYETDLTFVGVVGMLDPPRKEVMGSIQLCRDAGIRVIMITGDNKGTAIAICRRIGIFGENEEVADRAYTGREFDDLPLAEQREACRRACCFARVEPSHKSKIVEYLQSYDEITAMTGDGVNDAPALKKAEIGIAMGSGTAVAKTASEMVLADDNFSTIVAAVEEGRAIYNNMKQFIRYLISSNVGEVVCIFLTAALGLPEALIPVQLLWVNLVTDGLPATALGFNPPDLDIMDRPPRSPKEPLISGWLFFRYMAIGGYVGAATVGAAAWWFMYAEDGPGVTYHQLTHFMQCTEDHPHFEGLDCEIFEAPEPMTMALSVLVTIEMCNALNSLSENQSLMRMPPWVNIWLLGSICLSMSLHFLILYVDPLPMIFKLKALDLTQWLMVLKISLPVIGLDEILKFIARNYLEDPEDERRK

IC50 [1]: 300000 nM
Structure (SMILES): CCCCCCCCCCCCCCC(CCCCCCCCCCCCCC)CO[C@@H]1O[C@H](CO)[C@@H](O[C@@H]2O[C@H](CO)[C@H](O)[C@H](OS(=O)(=O)O)[C@H]2O)[C@H](O[C@@H]2O[C@@H](C)[C@@H](O)[C@@H](O)[C@@H]2O)[C@H]1O

Structure (SMILES): COC[C@@H](C[C@H]1O[C@@](O)([C@H](O)[C@@H]2C[C@H](OC)[C@@H](O)CC/C=C(C)/C=C/[C@@H](O[C@@H]3O[C@@H](C)[C@H](OC)[C@@H](O)[C@@H]3O)[C@H](C)/C=C(C)/C=C(C)/C=C(\C)C(=O)O2)[C@H](C)[C@@H](O)[C@H]1C)O[C@H]1C[C@](C)(O)[C@@H](O[C@H]2C[C@@H](OC)[C@H](O)[C@@H](C)O2)[C@H](C)O1
IC50 [2]: 0.011 µg/mL (≈ 0.00974 µM)
EC50 [3]: < 50 nM

Structure (SMILES): C/C=C(\C)C(=O)O[C@@H]1[C@@H](O)[C@@H]2O[C@H]3[C@H](O[C@@H](CCCCC)CCCCCCC(=O)CCC(=O)OC[C@@H](O2)[C@H]1OC(=O)/C=C/c1ccccc1)O[C@H](C)[C@H](OC(C)=O)[C@@H]3O
IC50 [4]: 5.4 nM
IC50 at 3 days [5]: 16.8 nM

Structure (SMILES): C/C=C/C/C(C)=C\[C@H]1C/C=C/C=C/C[C@H](C)/C=C(\C)[C@@H](OC)C/C=C/[C@@H](O[C@@H]2O[C@H](CO)[C@@H](O)[C@H](OC)[C@H]2O)CC(=O)O1
GI50 [6]: 600 nM
GI50 [7]: 600 nM
GI50 [8]: 600 nM
GI50 [9]: 600 nM
GI50 [10]: 600 nM
GI50 [11]: 600 nM
GI50 [12]: 600 nM
GI50 [13]: 600 nM
GI50 [14]: 600 nM
GI50 [15]: 600 nM
GI50 [16]: 600 nM
GI50 [17]: 600 nM
GI50 [18]: 600 nM
GI50 [19]: 600 nM
GI50 [20]: 600 nM
GI50 [21]: 600 nM
GI50 [22]: 600 nM
GI50 [23]: 600 nM
GI50 [24]: 600 nM
GI50 [25]: 600 nM
GI50 [26]: 600 nM
GI50 [27]: 600 nM
GI50 [28]: 600 nM
GI50 [29]: 600 nM
GI50 [30]: 600 nM
GI50 [31]: 600 nM
GI50 [32]: 600 nM
GI50 [33]: 600 nM
GI50 [34]: 600 nM
GI50 [35]: 600 nM
GI50 [36]: 600 nM
GI50 [37]: 600 nM
GI50 [38]: 600 nM
GI50 [39]: 600 nM
GI50 [40]: 600 nM
GI50 [41]: 600 nM
GI50 [42]: 600 nM
GI50 [43]: 600 nM
IC50 [44]: 0.1 µg/mL (≈ 0.165 µM)
Ki [45]: 19 nM

Structure (SMILES): COC[C@@H](C[C@H]1O[C@@](O)([C@H](O)[C@@H]2C[C@H](OC)[C@@H](O)CCC/C=C(C)\C=C\C[C@@H](O[C@H]3O[C@@H](C)[C@H](OC)[C@@H](O)[C@@H]3O)[C@H](C)/C=C(C)/C=C(C)/C=C(\C)C(=O)O2)[C@H](C)[C@@H](O)[C@H]1C)O[C@H]1C[C@](C)(O)[C@@H](O[C@H]2C[C@@H](OC)[C@H](O)[C@@H](C)O2)[C@H](C)O1
IC50 [46]: 20 nM
IC50 [47]: 30 nM

Structure (SMILES): CCCCC[C@@H](CCCCCCCCCC(=O)O[C@H]1[C@H](O[C@@H](CNc2ccc(OC)cc2)[C@@H](O)[C@H](O)[C@H](O)CO)O[C@@H](C)[C@H](OC(=O)[C@@H](C)[C@@H](C)O)[C@H]1O[C@@H]1O[C@@H](C)[C@H](O)[C@@H](O)[C@H]1O)O[C@@H]1OC[C@@H](O)[C@H](O)[C@H]1O[C@@H]1O[C@H](CO)[C@@H](O)[C@H](O)[C@H]1O[C@@H]1O[C@@H](C)[C@H](OC(=O)[C@H](C)[C@@H](C)O)[C@@H](O[C@@H]2O[C@@H](C)[C@H](O)[C@@H](O)[C@H]2O)[C@H]1OC(=O)CCCCCCCCC[C@@H](O)CCC
IC50 [48]: 8.72 µg/mL (≈ 4.72 µM)
IC50 [49]: 9.78 µg/mL (≈ 5.29 µM)
IC50 [50]: 10.9 µg/mL (≈ 5.9 µM)

GI50 [51]: 7 nM
Structure (SMILES): COC[C@@H](C[C@H]1O[C@@](O)([C@H](O)[C@@H]2C[C@H](OC)CCC/C=C(C)/C=C/[C@@H](O[C@@H]3O[C@@H](C)[C@H](OC)[C@@H](O)[C@@H]3O)[C@H](C)/C=C(C)/C=C(C)/C=C(\C)C(=O)O2)[C@H](C)[C@@H](O)[C@H]1C)O[C@H]1C[C@](C)(O)[C@@H](O[C@H]2C[C@@H](OC)[C@H](O)[C@@H](C)O2)[C@H](C)O1

Structure (SMILES): CCCCCCCCCCCCn1cc(CO[C@@H]2OC[C@@H](O)[C@H](O)[C@H]2O)nn1
CC50 [52]: 26000 nM
